According to paper PMC12040169 (PLOS Biology, 2025):

Assay: in vitro
Conditions: human, hela cells, % viability

O=C(Nc1ccc2cc(Br)cnc2n1)C(F)(F)F [CBK063313]
viability at 28.5 h, 10 µM: 90%

Cc1ccc(S(=O)(=O)c2ccccc2)cc1S(=O)(=O)NCc1ccncc1 [CBK270073]
viability at 28.5 h, 10 µM: 98.4%

Cc1ccc(C2CCCN2C(=O)C(C)Cn2cncn2)cc1C (stereo not drawn) [CBK282213]
viability at 28.5 h, 10 µM: 98.9%

COCC1(C)NC(=O)N(Cc2nn(-c3ccccc3)c3c2CCC3)C1=O (stereo not drawn) [CBK306483]
viability at 28.5 h, 10 µM: 88.8%

O=C(Cn1c(=O)cc(O)c2ccccc21)Nc1cccc(F)c1 [CBK291242]
viability at 28.5 h, 10 µM: 98.1%

O=C(O)CN(CC(=O)O)c1ccccc1 [CBK261326]
viability at 28.5 h, 10 µM: 90.7%

O=C(CSc1nnc(-c2ccccc2O)n1Cc1ccccc1)NC12CC3CC(CC(C3)C1)C2 [CBK266075]
viability at 28.5 h, 10 µM: 88.9%

O=C(COc1cccc(Cl)c1)N/N=C\c1ccc(C(=O)O)cc1 [CBK262293]
viability at 28.5 h, 10 µM: 102%

Cc1ccc(CN(CCCn2ccnc2)Cc2cncn2C)s1 [CBK283106]
viability at 28.5 h, 10 µM: 90.2%

COCCNc1nc(-c2ccccc2OC)ccc1C(=O)N1CCN(C)CC1 [CBK105950]
viability at 28.5 h, 10 µM: 88.7%

c1ccc2c(c1)CC(Oc1cncc(N3CCNCC3)n1)C2 [CBK000242G]
viability at 28.5 h, 10 µM: 106%

Cn1c(SCCCN2C(=O)c3cccc4cccc(c34)C2=O)nnc1-c1ccncc1 [CBK268951]
viability at 28.5 h, 10 µM: 93.1%

Cc1nc2c(c(=O)[nH]1)CCN(C(=O)c1oc3ccccc3c1C)C2 [CBK283752]
viability at 28.5 h, 10 µM: 111%

N#Cc1cccc(OCC(=O)NCC2(N3CCOCC3)CCSC2)c1 (stereo not drawn) [CBK305685]
viability at 28.5 h, 10 µM: 86.3%

Cc1ncc(C(O)c2ccc(Cl)cc2)c2c1OC(C)(C)OC2 (stereo not drawn) [CBK010749]
viability at 28.5 h, 10 µM: 111%

Fc1cccc(-c2cncc(NCCc3c[nH]c4ccccc34)n2)c1 [CBK065288]
viability at 28.5 h, 10 µM: 94.7%

O=C(Cn1ncc2cccn2c1=O)Nc1ccc(F)cc1 [CBK283672]
viability at 28.5 h, 10 µM: 107%

CCn1c(CN2CCn3c(nnc3C3CC3)C2)nc2c(F)cccc21 [CBK306300]
viability at 28.5 h, 10 µM: 96.6%

O=C(c1cccc(-c2nnc(-c3ccccc3)o2)c1)N1CCN(C(=O)c2ccco2)CC1 [CBK269809]
viability at 28.5 h, 10 µM: 78.5%

O=C(NC(c1ccccc1)c1ccccn1)c1ccco1 (stereo not drawn) [CBK144109]
viability at 28.5 h, 10 µM: 106%

O=C(NCCc1cccs1)N1CCC2(CC1)OCCc1c2[nH]c2ccccc12 [CBK047129]
viability at 28.5 h, 10 µM: 85.4%

O=C(N[C@H]1CCN2C(=O)N(CCCl)C(=O)[C@@H]2C1)c1ccncc1 [CBK289551]
viability at 28.5 h, 10 µM (bulk resorufin, single well): 88.3%

O=C(Nc1ccc(Cl)cc1)c1ccc(N2CCN(Cc3ccccc3)CC2)c([N+](=O)[O-])c1 [CBK264422]
viability at 28.5 h, 10 µM: 103%

O=C(c1csnn1)N1Cc2ccccc2C1 [CBK200325]
viability at 28.5 h, 10 µM: 111%

Cc1cc(C)nc(CCNCc2c(C(C)C)nn(C)c2N(C)C)n1 [CBK305159]
viability at 28.5 h, 10 µM: 112%

CCN1C(=O)C2(CC(=O)N(CCc3cccc(OC)c3)C2=O)c2cc(C)ccc21 (stereo not drawn) [CBK075195]
viability at 28.5 h, 10 µM: 96.7%

COC(=O)C1CC2CCC1(C)CC21NC(=O)c2ccccc2N1 (stereo not drawn) [CBK284440]
viability at 28.5 h, 10 µM: 100%

Brc1ccc2[nH]c3c(c2c1)CCNC31CCN(CCOc2ccccc2)C1 (stereo not drawn) [CBK083578]
viability at 28.5 h, 10 µM: 75.5%

COc1ccc2c(c1)CCN=C2C[C@H]1CN(C(=O)NC(C)C)CC[C@H]1CC(=O)O [CBK289156]
viability at 28.5 h, 10 µM: 90%

COc1cc(OC)c(OC)cc1CN1CCN(S(=O)(=O)c2ccc(C)cc2)CC1 [CBK263323]
viability at 28.5 h, 10 µM: 92.4%

Cc1ccc(CNCCNCCO)s1 [CBK278168C]
viability at 28.5 h, 10 µM: 108%

Cc1ccc(Cc2cnc(NC(=O)NC3CCOC(C)(C)C3)s2)cc1F (stereo not drawn) [CBK304139]
viability at 28.5 h, 10 µM: 92.2%

c1ccc2sc(-c3cc(N4CCN(CCN5CCCC5)CC4)ncn3)cc2c1 [CBK091172]
viability at 28.5 h, 10 µM: 89.3%

COc1cc(CNc2cc(-c3cccc4cccnc34)ncn2)cc(OC)c1OC [CBK091179]
viability at 28.5 h, 10 µM: 76.6%

Cc1ccccc1C(=O)NC1(C(F)(F)F)C(=O)Nc2c1c(=O)[nH]c(=O)n2CCc1ccccc1 (stereo not drawn) [CBK267483]
viability at 28.5 h, 10 µM: 86.6%

COc1cccc(NC(=O)CC(CN2CCN(CCC#N)CC2)C(=O)O)c1 (stereo not drawn) [CBK286801]
viability at 28.5 h, 10 µM: 86.1%

COC(=O)c1nn(C(=O)N(C)C)c(C)c1Br [CBK005077]
viability at 28.5 h, 10 µM: 88.5%

O=C(c1ccc2ncsc2c1)N1CCN(S(=O)(=O)c2ccc(C(F)(F)F)cc2)CC1 [CBK295285]
viability at 28.5 h, 10 µM: 98.2%

O=C(c1ccco1)N1CCC(c2ccnc3nc4ccccc4n23)CC1 [CBK284490]
viability at 28.5 h, 10 µM: 87.2%

CC(=O)Nc1ccc(-c2cc(Nc3ccc(NC(=O)c4ccc(N)cc4)cc3)ncn2)cc1 [CBK091103]
viability at 28.5 h, 10 µM: 97%

c1ccc2c(c1)CCCN2Cc1ncc[nH]1 [CBK138332]
viability at 28.5 h, 10 µM: 89.2%

Brc1ccsc1-c1csc(-c2ccccc2)n1 [CBK019859]
viability at 28.5 h, 10 µM: 102%

O=C(Nc1nc2ccccc2[nH]1)c1ccc(N2CCCS2(=O)=O)cc1 [CBK304582]
viability at 28.5 h, 10 µM: 98.6%

CN(Cc1ccccc1N1CCCC1)C(=O)Cc1cn2ccsc2n1 [CBK305897]
viability at 28.5 h, 10 µM: 78%

COc1ccc(C2=NN(c3ccc([N+](=O)[O-])cc3)C(=O)/C2=C\c2cccc(OC)c2OC)cc1 [CBK264475]
viability at 28.5 h, 10 µM: 96%

CCOC(=O)C1=C(C)NC(=S)NC1c1ccc(O)c(OCC)c1[N+](=O)[O-] (stereo not drawn) [CBK265624]
viability at 28.5 h, 10 µM: 102%

COc1ccc(CCN2C(=O)NC(=O)/C(=C\c3c(C)[nH]c4ccccc34)C2=O)cc1OC [CBK265368]
viability at 28.5 h, 10 µM (bulk resorufin, single well): 81.6%

CC(C)(C)NC(=O)N1CCC(Nc2nccc(C(F)(F)F)n2)CC1 [CBK028788]
viability at 28.5 h, 10 µM: 113%

CS(=O)(=O)c1ccc(CN2C(=O)CC3(CCN(C(=O)c4ccc([N+](=O)[O-])cc4)CC3)C2=O)cc1 [CBK155019]
viability at 28.5 h, 10 µM: 99%

CC1CC(Nc2ccccc2)c2ccccc2N1 (stereo not drawn) [CBK057947]
viability at 28.5 h, 10 µM: 86.6%

O=C(O)CCC(=O)NC1CCN(Cc2ccccc2)CC1 [CBK287103]
viability at 28.5 h, 10 µM: 86.5%

O=C(N/N=C/c1c(F)cccc1Cl)c1ccccc1O [CBK261815]
viability at 28.5 h, 10 µM: 113%

CC(C)NS(=O)(=O)c1ccc(NC(=O)Cc2cccc3ccccc23)cc1 [CBK268102]
viability at 28.5 h, 10 µM: 94.8%

O=C(O)c1ccc(NS(=O)(=O)c2ccc(Br)c3ccccc23)cc1O [CBK299772]
viability at 28.5 h, 10 µM: 86.5%

CCCn1cc(C(=O)NCc2ccc(Cl)cc2)c(=O)c2cc(CN3CCOCC3)sc21 [CBK018478]
viability at 28.5 h, 10 µM: 93.8%

CC(C)(C)c1cc(C(=O)Nc2ccncc2)n(Cc2ccc(Cl)cc2Cl)n1 [CBK107284]
viability at 28.5 h, 10 µM: 107%

NS(=O)(=O)c1ccc(NC(=O)CC2SC(=O)NC2=O)cc1 (stereo not drawn) [CBK263855]
viability at 28.5 h, 10 µM: 98.9%

COc1ccc(C(C)C)cc1S(=O)(=O)NCCc1c(C)[nH]c2c(Cl)cccc12 [CBK266983]
viability at 28.5 h, 10 µM: 94.5%

CC(=O)N(C)[C@H]1CC[C@]2(CC1)CNC(=O)c1cc(C)ccc1O2 [CBK281690]
viability at 28.5 h, 10 µM: 101%

COc1ccc(OC)c(-n2c(=O)[nH]c3ccccc3c2=O)c1 [CBK287825]
viability at 28.5 h, 10 µM: 110%

CC(Oc1ccc(Cl)cc1Cl)C(=O)Nc1ccc2oc(-c3ccncc3)nc2c1 (stereo not drawn) [CBK266768]
viability at 28.5 h, 10 µM: 109%

CCOc1ccc(/N=C2/SC(C(=O)O)CC(=O)N2Cc2ccc3c(c2)OCO3)cc1 (stereo not drawn) [CBK263296]
viability at 28.5 h, 10 µM: 93.3%

Cc1ccc(NS(=O)(=O)c2cc(C(=O)N3CCN(C)CC3)ccc2C)cc1C [CBK269268]
viability at 28.5 h, 10 µM: 91.2%

O=C(O)CCc1ccc(S(=O)(=O)NCc2ccccc2)cc1 [CBK287054]
viability at 28.5 h, 10 µM: 79.8%

COc1ncc(-c2nccnc2NCc2cccc(Cl)c2)c(OC)n1 [CBK037990]
viability at 28.5 h, 10 µM: 90%

Cc1ccccc1CN1CCC(NC(=O)Cn2cc(Br)ccc2=O)CC1 [CBK305716]
viability at 28.5 h, 10 µM: 93.1%

CN1CCN(c2ccc(C(=O)O)cc2)CC1 [CBK264773]
viability at 28.5 h, 10 µM: 94.8%

CCOC(=O)Cn1c(CN2CCC(Cc3ccccc3)CC2)nc2c1c(=O)n(C)c(=O)n2C [CBK269454]
viability at 28.5 h, 10 µM: 89.8%

O=C(CCN1CCN(CCO)CC1)Nc1ccc2c(c1)CCC2 [CBK264262C]
viability at 28.5 h, 10 µM: 93.2%

COC(=O)CCc1ccc(S(=O)(=O)N2CCCN(Cc3cc(F)c(F)c(F)c3)CC2)cc1 [CBK062998]
viability at 28.5 h, 10 µM: 103%

CC(=O)N[C@@H](CC[S+](C)[O-])C(=O)N1CCC2(C/C=C/C[C@@H]3COCC[C@@H]3NC(=O)[C@@H](CC(C)C)NC2=O)CC1 (stereo partly drawn) [CBK292192]
viability at 28.5 h, 10 µM: 105%

O=C(NCc1ccccn1)c1cc2cc(F)ccc2[nH]1 [CBK107276]
viability at 28.5 h, 10 µM: 102%

FC(F)(F)c1cccc(NC(=S)Nc2ccc(Cc3ccncc3)cc2)c1 [CBK267251]
viability at 28.5 h, 10 µM: 89.1%

O=C(NCc1n[nH]c(=O)c2ccccc12)Nc1ccc(F)cc1 [CBK287744]
viability at 28.5 h, 10 µM: 94.2%

C[C@H](Nc1nccnc1-c1cccc(O)c1)c1ccccc1 [CBK037180]
viability at 28.5 h, 10 µM: 106%

COc1cc(NC(=O)c2ccc3c(c2)C(=O)N(c2c(C)cc(C)cc2C)C3=O)c(C(=O)O)cc1OC [CBK264074]
viability at 28.5 h, 10 µM: 91.1%

NC(=O)c1c(F)cccc1-c1cc(NCCO)nc2[nH]ccc12 [CBK306689]
viability at 28.5 h, 10 µM: 112%

Cn1c2c(c3ccccc31)CCOC21CCNCC1 [CBK081142]
viability at 28.5 h, 10 µM: 99.3%

COCCNc1nccnc1-c1cccc(C(F)(F)F)c1 [CBK037330]
viability at 28.5 h, 10 µM: 89.7%

CC1CCCCN1CC(C)(C)NC(=O)c1cc(C2CC2)on1 (stereo not drawn) [CBK281676]
viability at 28.5 h, 10 µM: 100%

Cc1nc2c(c(=O)[nH]1)CCN(Cc1c(C)oc3ccccc13)C2 [CBK283994]
viability at 28.5 h, 10 µM: 87.8%

Cc1cc(C)cc(N(C(C)C(=O)Nc2ccccc2-c2ccccc2)S(C)(=O)=O)c1 (stereo not drawn) [CBK268770]
viability at 28.5 h, 10 µM: 101%

NS(=O)(=O)c1ccc(CCNC(=O)CN2C(=O)c3ccccc3C2=O)cc1 [CBK264377]
viability at 28.5 h, 10 µM: 96%

O=C(CSc1nnc(-c2ccccc2)c(-c2ccccc2)n1)Nc1ccc(N2CCOCC2)cc1 [CBK269684]
viability at 28.5 h, 10 µM: 89.7%

Cc1ccc(S(=O)(=O)NC(C)(C)C(=O)O)cc1 [CBK263840]
viability at 28.5 h, 10 µM: 88.8%

O=C(N1CCCCCC1)N1CCN(S(=O)(=O)N2CCOCC2)CC1 [CBK268681]
viability at 28.5 h, 10 µM: 105%

CN(C)c1ncc(-c2ccc(O)cc2)cc1C(=O)NCc1ccc(F)cc1 [CBK106396]
viability at 28.5 h, 10 µM: 91.5%
